This is an account of results in patent publication US6514945B1, “Azalide antibiotic compositions” (Pfizer Inc., priority 2000, dated 2003).

The nature of the data set: Equilibration of azalide isomers I and II in heated aqueous acid, monitored by HPLC (Table 1). The format is physicochemical. The following applies: isomer I prior to equilibration, for comparison. On the procedure:
The equilibrium ratio of isomers I and II (about 90%±4% to about 10%±4%, respectively) was consistent for all experiments. […] Without being bound by any theory, lower equilibration temperatures or lower pH values generally result in substantially longer equilibration times. Equilibration time can also depend on, inter alia, the concentration of starting material, and the type and concentration of the acid used. Isomer I at a concentration of up to about 300 mg per mL of composition was heated to a temperature of about 40° C. to about 80° C. in the presence of one or more acids at a concentration of about 0.2 mmol to about 1.0 mmol per mL of mixture and with a sufficient quantity of hydrochloric acid to achieve a pH of about 6.5 to about 7.5 for up to about 20 hours to produce an equilibrium mixture of isomers that is about […] pure. Equilibration kinetic parameters and impurity levels for equilibration of azalide isomers I and II were determined as a function of pH, equilibration temperature, type of acid, and isomer I concentration and are listed in Table 1. […]
Equilibrium mixtures of isomers were prepared and assayed as follows. […] 100 mL of solution were prepared in each of experiments 25C-28C, 200 mL of solution were prepared in each of experiments 29C-30C, and equilibration was monitored from 0.5 mL aliquots removed from the solutions. […]

In the case of `CCCNC[C@]1(O)[C@H](C)O[C@@H](O[C@H]2[C@H](C)[C@@H](OC3O[C@H](C)C[C@H](N(C)C)[C@H]3O)C(C)(O)C[C@@H](C)CN[C@H](C)[C@@H](O)[C@](C)(O)[C@@H](CC)OC(=O)[C@@H]2C)C[C@@]1(C)OC` (single isomer, unassigned) [isomer I], the “% Equilibrium mixture of isomers” value came to 98.39% and the “% Impurities” value is given as 1.61%.
